Data as given in PMC6534253, “Stereoselective pharmacokinetic and pharmacodynamic analysis of a CNS-active sulphamoylphenyl carbamate derivative” (Journal of Enzyme Inhibition and Medicinal Chemistry, 2019).
One block for each compound: values may come before it.

Tests used:
[1] = Pharmacokinetics from plasma levels after i.p. administration to rats; assay type: in vivo, rat; settings: for Vd/F: read-out: Vss/F
Protocol: (§1) The pharmacokinetics (PK) of racemic-MSPC and its two individual enantiomers were studied following i.p. (80 mg/kg) to rats and their major PK parameters were estimated.
(§2) The study details were as described previously[8] and plasma and brain levels of racemic-MSPC and it individual enantiomers were monitored at: 20, 40, 60, 90, 120, 160, 180, 200, 220, 260, 320, and 360 min after dosing.
(§3) Plasma and brain concentrations of each compound were quantified by an HPLC assay. The HPLC analysis was performed on a system (2695 Separation Module; Waters, Milford, MA) with a photodiode array UV detector (2996 PDA Detector; Waters, Milford, MA). Conditioned as follows: Kinetex, 5 u EVO C18 100 A, 150*4.6 mm column (Phenomenex®, Torrance, CA). Linear gradients (5–95% acetonitrile content) with H2O (0.1% formic acid) and acetonitrile were used as the eluents with flow rate of 1 ml/min at 20 °C. The compounds and the internal standard were detected at 250 nm. Plasma and brain concentrations of MSPC and its two individual enantiomers were quantified by assay that its extraction method was previously described.
(§4) The PK parameters of each compound were calculated by non-compartmental analysis based on statistical moment theory using the PK software Phoenix Winnonlin Tripos L.P. (Pharsight Co., Mountain View, CA) as previously described. MSPC amount excreted unchanged in the urine was calculated by multiplying its urine concertino by the excreted urine volume for up to 6 h after dosing.

[2] = Pharmacokinetics from brain levels after i.p. administration to rats; assay type: in vivo, rat; settings: for AUCbrain: as used in the BPR calculation; for Vd/F: read-out: Vss/F
Protocol: as §1, §2, §3, §4

[3] = Amount excreted unchanged in urine; assay type: in vivo, rat; settings: urine up to 6 h after dosing
Protocol: MSPC urine concentrations were quantified by the same HPLC assay as its plasma assay.
as §4

hCA I = hCA I (Homo sapiens, UniProt P00915); assay: Stopped flow CO2 hydrase assay, hCA I; assay type: biochemical; settings: for Ki: mean from three assays, stopped flow technique
hCA I, sequence (P00915 whole entry): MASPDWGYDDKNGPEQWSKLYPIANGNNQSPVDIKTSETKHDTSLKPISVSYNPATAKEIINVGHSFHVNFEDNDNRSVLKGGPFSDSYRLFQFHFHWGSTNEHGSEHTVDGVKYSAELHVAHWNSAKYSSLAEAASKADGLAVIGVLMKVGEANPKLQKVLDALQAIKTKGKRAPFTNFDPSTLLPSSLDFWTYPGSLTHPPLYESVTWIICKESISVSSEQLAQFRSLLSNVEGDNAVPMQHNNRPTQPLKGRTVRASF
Protocol: (§5) The CA inhibition of MSPC and its individual enantiomers were assessed by a stopped flow CO2 hydrase assay as previously described.

hCA II = hCA II (Homo sapiens, UniProt P00918); assay: Stopped flow CO2 hydrase assay, hCA II; assay type: biochemical; settings: for Ki: mean from three assays, stopped flow technique
Protocol: as §5

hCA IV = hCA IV (Homo sapiens, UniProt P22748); assay: Stopped flow CO2 hydrase assay, hCA IV; assay type: biochemical; settings: mean from three assays, stopped flow technique
hCA IV, sequence (P22748 19-312): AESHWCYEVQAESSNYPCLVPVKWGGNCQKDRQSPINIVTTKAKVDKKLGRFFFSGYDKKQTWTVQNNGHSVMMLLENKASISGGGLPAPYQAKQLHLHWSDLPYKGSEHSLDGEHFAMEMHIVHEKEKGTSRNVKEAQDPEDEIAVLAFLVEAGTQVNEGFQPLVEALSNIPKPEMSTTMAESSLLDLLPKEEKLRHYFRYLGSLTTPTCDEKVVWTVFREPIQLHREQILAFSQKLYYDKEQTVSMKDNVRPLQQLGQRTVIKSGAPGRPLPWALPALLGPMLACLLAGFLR
Protocol: as §5

hCA VII = hCA VII (Homo sapiens, UniProt P43166); assay: Stopped flow CO2 hydrase assay, hCA VII; assay type: biochemical; settings: mean from three assays, stopped flow technique
hCA VII, sequence (P43166 whole entry): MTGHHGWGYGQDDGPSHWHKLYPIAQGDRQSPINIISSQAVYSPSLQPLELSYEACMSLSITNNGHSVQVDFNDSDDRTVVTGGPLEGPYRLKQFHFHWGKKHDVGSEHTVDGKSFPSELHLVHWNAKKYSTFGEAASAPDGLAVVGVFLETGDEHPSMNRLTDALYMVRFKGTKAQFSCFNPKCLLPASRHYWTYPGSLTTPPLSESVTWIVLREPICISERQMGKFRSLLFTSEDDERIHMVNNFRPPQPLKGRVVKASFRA
Protocol: as §5

Water solubility = assay type: physicochemical
[4] = system: maximal electroshock seizure (MES); design: method as in PMID 28275953; settings: cited from earlier work
[5] = system: maximal electroshock seizure (MES); assay: Rat maximal electroshock (MES) anticonvulsant test; assay type: in vivo
Source text: The experiments at the MES model were done in male Sprague-Dawley rats (8 rats per dose) weighing 100−120 g (Charles River Laboratories, Wilmington, MA) as previously described.

[6] = rat, ip, plasma, i.p. 80 mg/kg, mean
[7] = rat, plasma, ip, 80 mg/kg, as used in the BPR calculation, i.p. 80 mg/kg, read-out: AUCplasma
[8] = rat, plasma, ip, 80 mg/kg, plasma, i.p. 80 mg/kg, mean, read-out: AUC
[9] = rat, ip, brain, rats, i.p. 80 mg/kg, mean
[10] = plasma, i.p. 80 mg/kg, mean, listed as (R)-enantiomer, 80 mg/kg
[11] = brain, rats, i.p. 80 mg/kg, mean, listed as (R)-enantiomer, 80 mg/kg
[12] = brain, rats, i.p. 80 mg/kg, mean, listed as (S)-enantiomer, 80 mg/kg

SMILES: CCC(C)CCOC(=O)Nc1ccc(S(N)(=O)=O)cc1 (racemic) [MSPC (racemate), 3-Methylpentyl(4-sulphamoylphenyl)carbamate]
half-life [1, 6]: 2.1 h | CL/F ([1]; rat, ip, plasma, i.p. 80 mg/kg, mean, read-out: CL/F (converted)): 11.7 mL/min/kg | Cmax ([1]; rat, ip, plasma, i.p. 80 mg/kg, mean, read-out: Cmax): 10000 ng/mL | Vd/F [1, 6]: 2.2 L/kg | Tmax ([1]; rat, ip, plasma, i.p. 80 mg/kg, mean, read-out: tmax): 1.3 h | AUC [1, 7]: 28500 ng·h/mL | AUC [1, 8]: 29000 ng·h/mL | AUCbrain ([2]; rats, i.p. 80 mg/kg): 52.8 | Kp ([2]; rat, brain, ip, AUCbrain/AUCplasma, rats, i.p. 80 mg/kg, read-out: brain-to-plasma-(AUC)-ratio (BPR)): 1.85 | half-life [2, 9]: 1.9 h | AUC ([2]; rat, ip, brain, rats, i.p. 80 mg/kg, mean, read-out: AUC): 53000 ng·h/mL | CL/F ([2]; rat, ip, brain, rats, i.p. 80 mg/kg, mean, read-out: CL/F (converted)): 6.67 mL/min/kg | Cmax ([2]; rat, ip, brain, rats, i.p. 80 mg/kg, mean, read-out: Cmax): 18000 ng/mL | Vd/F [2, 9]: 1 L/kg | Tmax ([2]; rat, ip, brain, rats, i.p. 80 mg/kg, mean, read-out: tmax): 1.6 h | dose excreted unchanged in urine [3]: Less than 0.1% | Ki (hCA I): 77 nM | Ki (hCA II): 7.6 nM | Ki (hCA IV): 750 nM | Ki (hCA VII): 351 nM | water solubility (Water solubility): low water solubility | rat-MES-ED50 (i.p.) ([4]; i.p.): 13 mg/kg | rat-MES-ED50 (po) ([4]; po): 28 mg/kg

higher clearance ([1]; compared to (S)-MSPC and racemic-MSPC): 29% | plasma exposure compared to (S)-MSPC ([1]; i.p. 80 mg/kg): 78% | AUC [1, 10]: 23 mg/L/h | CL/F [1, 10]: 15 mL/min/kg | Cmax [1, 10]: 10000 ng/mL | Tmax [1, 10]: 1.0 h | Vss/F [1, 10]: 3.2 l/kg^−1 | t1/2 [1, 10]: 2.5 h | brain-to-plasma-(AUC)-ratio (BPR) ([2]; AUCbrain/AUCplasma, rats, i.p. 80 mg/kg, listed as (R)-enantiomer, 80 mg/kg): 2.07 | AUC [2, 11]: 47 mg/L/h | CL/F [2, 11]: 6.7 mL/min/kg | Cmax [2, 11]: 16000 ng/mL | Tmax [2, 11]: 1.0 h | Vss/F [2, 11]: 1.4 l/kg^−1 | t1/2 [2, 11]: 2.3 h | times higher BPR than its enantiomer ([2]; versus (S)-MSPC): 2.6 | Ki (hCA I): 34.1 nM | times more effective inhibitor than (S)-MSPC against hCA I (hCA I; ratio of Ki versus (S)-MSPC): 3.8 | Ki (hCA II): 3.3 nM | times more effective inhibitor than (S)-MSPC against hCA II (hCA II; ratio of Ki versus (S)-MSPC): 6.1 | Ki (hCA IV): 810 nM | Ki (hCA VII): 170 nM
SMILES: CC[C@@H](C)CCOC(=O)Nc1ccc(S(N)(=O)=O)cc1 [(R)-MSPC, 3-methylpentyl(4-sulphamoylphenyl)carbamate]
rat-MES (po)-ED50 [5]: 30 mg/kg

AUC [1, 7]: 29000 ng·h/mL | half-life ([1]; rat, plasma, ip, 80 mg/kg, i.p. 80 mg/kg, mean): 2.3 h | AUC [1, 8]: 29000 ng·h/mL | CL/F ([1]; rat, plasma, ip, 80 mg/kg, plasma, i.p. 80 mg/kg, mean, read-out: CL/F (converted)): 11.7 mL/min/kg | Cmax ([1]; rat, plasma, ip, 80 mg/kg, plasma, i.p. 80 mg/kg, mean, read-out: Cmax): 7600 ng/mL | Vd/F ([1]; rat, plasma, ip, 80 mg/kg, plasma, i.p. 80 mg/kg, mean): 2.3 L/kg | Tmax ([1]; rat, plasma, ip, 80 mg/kg, plasma, i.p. 80 mg/kg, mean, read-out: tmax): 1.3 h | brain-to-plasma-(AUC)-ratio (BPR) ([2]; AUCbrain/AUCplasma, rats, i.p. 80 mg/kg, listed as (S)-enantiomer, 80 mg/kg): 0.79 | AUCbrain ([2]; rats, i.p. 80 mg/kg, listed as (S)−enantiomer, 80 mg/kg): 22.8 | AUC [2, 12]: 23 mg/L/h | CL/F [2, 12]: 15 mL/min/kg | Cmax [2, 12]: 7000 ng/mL | Vd/F ([2]; rat, brain, ip, 80 mg/kg, brain, rats, i.p. 80 mg/kg, mean): 2.2 L/kg | Tmax ([2]; rat, brain, ip, 80 mg/kg, brain, rats, i.p. 80 mg/kg, mean, read-out: tmax): 0.6 h | half-life ([2]; rat, brain, ip, 80 mg/kg, rats, i.p. 80 mg/kg, mean): 1.7 h | Ki (hCA I): 130 nM | Ki (hCA II): 20.3 nM | Ki (hCA IV): 593 nM | Ki (hCA VII): 744 nM
SMILES: CC[C@H](C)CCOC(=O)Nc1ccc(S(N)(=O)=O)cc1 [(S)-MSPC, 3-methylpentyl(4-sulphamoylphenyl)carbamate]
ED50 ([5]; Rattus norvegicus, po): 24 mg/kg
